Experimental data published in patent EP0347802B1, “Neurokinin A antagonists” (MERRELL DOW PHARMACEUTICALS INC., priority 1988, dated 1989).
Residues, ends and D or L forms follow the SMILES beside them.

Tests used:
NKA receptor = target: T1, NKA receptor (Mesocricetus auratus, UniProt P51144); assay: Neurokinin A-induced phosphatidylinositol (PI) turnover in hamster urinary bladder; type: cell-based; conditions: for shift of NKA dose-response curve (PI turnover): one experiment in triplicate; for partial agonist activity: test compound alone
T1 construct: from tissue; host or cells: hamster urinary bladder, chopped tissue
T1 sequence (P51144 1-384): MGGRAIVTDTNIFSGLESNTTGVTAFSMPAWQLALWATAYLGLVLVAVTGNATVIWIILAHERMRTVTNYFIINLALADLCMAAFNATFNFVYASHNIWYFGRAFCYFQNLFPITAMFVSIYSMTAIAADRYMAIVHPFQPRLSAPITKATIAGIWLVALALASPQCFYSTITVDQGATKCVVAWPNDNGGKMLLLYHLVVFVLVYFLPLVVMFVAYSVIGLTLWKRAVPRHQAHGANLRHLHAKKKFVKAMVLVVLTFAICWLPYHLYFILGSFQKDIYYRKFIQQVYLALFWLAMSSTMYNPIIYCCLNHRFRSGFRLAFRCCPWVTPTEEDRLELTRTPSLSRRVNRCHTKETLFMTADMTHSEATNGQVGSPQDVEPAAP
Description: The abscissa (x-axis) logarithmically indicates the concentration in nanomoles of agonist or antagonist of the neurokinin A (NKA) receptor. […] The abscissa (x-axis) logarithmically indicates the concentration in nanomolar (nM) of agonist or antagonist of the NKA receptor. […] The abscissa (x-axis) logarithmically indicates the concentration in nanomolar (nM) of agonist or antagonist of the NKA receptor. […])]Leu-NH2 up to 100»M had only 5% partial agonist activity, and […] had only 12% partial agonist activity. […] Values are MEAN ± S.E.M. from one experiment in triplicate. Urinary bladders from several hamsters were pooled and chopped at 350 »m with a tissue chopper. The chopped tissue was then incubated in 37°C Krebs-Hepes buffer with fresh buffer changes every 15 minutes for 30 minutes. The tissue was then incubated in this buffer containing 100-200 »Ci of 3H-inositol at 37°C. The tissue was then washed and incubated for another 30 minutes in Krebs-Hepes (containing 10 mM Li+) at 37°C with fresh buffer change every 15 minutes. Portions of the tissue mass (approximately 10-20 mg per assay tube) were then placed in Li+ buffer, test compound was then added in 25 »l, and then various concentrations of neurokinin A were added in 25 »l in a final volume of 250 »l. […] Test compound was also evaluated alone at the indicated concentrations to test for agonist activity. After 30 minutes at room temperature, the phosphatidylinositol turnover was terminated by the addition of 940 »l chloroform:methanol (1:2), followed by 310 »l chloroform, followed by 310 »l water. Each tube was then vortexed for 15 seconds and then centrifuged at 3000 rpm for 10 minutes to separate the phases. 900 »l of the top (aqueous) phase was then loaded onto a 0.5 ml Biorad AG-1X8 (formate) ion exchange column. 50 »l of the bottom phase (chloroform) was withdrawn from each tube and placed in a counting vial, dried, and counted in scintillation fluid. The material on the columns was washed in order with: • 1) 10 ml of water • 2) 5 ml of 5 mM disodium tetraborate/60 mM sodium formate • 3) 10 ml of 1 M ammonium formate in 0.1 M formic acid The final (third) wash was collected and one ml was mixed with 6 ml of ACS scintillant and counted. The ratio of these counts (total inositol phosphates) to the corresponding organic phase counts was then calculated for each sample. The ratios in the presence of test compound and/or standards were then compared to the ratios for control tubes (i.e., no stimulating agonist). Dose-response curves were constructed and the abilities of test compounds to stimulate or to inhibit neurokinin A-induced phosphatidylinositol turnover were determined by graphical analysis or with the aid of a computer program and are illustrated in Figures 2 and 3.

hamster urinary bladder = assay: Hamster urinary bladder contraction preparation; parameters: species or system male golden Syrian hamsters; conditions: for effect on NKA-mediated contractile activity: NKA with 10 »M of test compound, one experiment in triplicate; for contraction produced by test compound alone: up to concentrations of 1 »M, three separate hamster bladder tissues each, thiorphan 10 »M
Description: The abscissa (x-axis) logarithmically indicates the concentration in nanomoles of agonist or antagonist of the neurokinin A (NKA) receptor. The ordinate (y-axis) indicates the observed specific binding for each tested agonist or antagonist measured as a percentage of maximum specific binding. [formula] Agonists tested were NKA and fragments of NKA consisting of the third to tenth (NKA(3-10)) amino acids and the fourth to tenth (NKA(4-10)) amino acids. Values are MEAN ± S.E.M. of 6 - 12 experiments. […] The abscissa (x-axis) logarithmically indicates the concentration in nanomolar (nM) of agonist or antagonist of the NKA receptor. […] The abscissa (x-axis) logarithmically indicates the concentration in nanomolar (nM) of agonist or antagonist of the NKA receptor. […] H-Asp-Ser-Phe-Val-Gly-Leuψ[CH₂N(CH₃)]Leu-NH₂ up to 100»M had only 5% partial agonist activity, and H-Asp-Ser-Phe-Val-Gly-Leuψ[CH₂NH]Leu-NH₂ had only 12% partial agonist activity. […] The abscissa (x-axis) logarithmically indicates the concentration in nanomolar (nM) of NKA or NKA with 10 »M of H-Asp-Ser-Phe-Val-Gly-Leuψ[CH₂NH]Leu-NH₂. […] The abscissa (x-axis) logarithmically indicates the concentration in nanomolar (nM) of NKA or NKA with 10 »M of H-Asp-Ser-Phe-Val-Gly-Leuψ[CH₂N(CH₃)]Leu-NH₂. Values are MEAN ± S.E.M. from one experiment in triplicate.
Half-strips of urinary bladders from male golden Syrian hamsters (75 - 100 g) were suspended in Tyrode's buffer at 31°C and with 1 gram resting tension as described by Dion et al. (Life Sciences 41: 2269 - 2278, 1987). The enkephalinase inhibitor thiorphan was added to the buffer at 10 »M 15 minutes prior to each test compound addition. Cumulative NKA dose-response curves were constructed first in the absence and then in the presence of test compound. The test compounds were added cumulatively as well to ascertain whether or not they had any contractile effects themselves. Any test compound effect that was observed was allowed to plateau before the next cumulative concentration was added. Under these conditions, the EC₅₀ for NKA contractile effects was generally 10 nM, in good agreement with literature values. Contractile data are expressed as grams of tension developed over and above the resting tension. […] Figures 4 and 5 illustrate the contractile force as a function of NKA concentration in the absence and presence of test compound.

| partial agonist activity (NKA receptor) [%] | SMILES | shift of NKA dose-response curve (PI turnover) (NKA receptor; 1, 10 and 100 »M test compound) | Kb (NKA receptor; Schild plot of NKA dose-response shifts at 1, 10 and 100 »M, read-out: pA2 (converted)) [nM] | slope of the Schild plot (NKA receptor; from NKA dose-response shifts at 1, 10 and 100 »M) | partial agonist activity (NKA receptor; up to 100»M) [%] | effect on NKA-mediated contractile activity (hamster urinary bladder) | contraction produced by test compound alone (hamster urinary bladder) | shift of NKA dose-response curve (PI turnover) (NKA receptor; 10 »M test compound) |
| --- | --- | --- | --- | --- | --- | --- | --- | --- |
|  | CC(C)C[C@@H](CN(C)[C@@H](CC(C)C)C(N)=O)NC(=O)CNC(=O)[C@@H](NC(=O)[C@H](Cc1ccccc1)NC(=O)[C@H](CO)NC(=O)[C@@H](N)CC(=O)O)C(C)C [H-Asp-Ser-Phe-Val-Gly-Leuψ[CH₂N(CH₃)]Leu-NH₂] (HELM PEPTIDE1{D.S.F.V.G.[CC(C)C[C@@H](CN(C)[C@@H](CC(C)C)C(N)=O)N[*:1]]}$$$$V2.0) | significant rightward shift of NKA dose-response curve in competitive manner | 21.9 | -.99 | 5 | antagonistic effect | did not produce any contraction |  |
| 12 | CC(C)C[C@@H](CN[C@@H](CC(C)C)C(N)=O)NC(=O)CNC(=O)[C@@H](NC(=O)[C@H](Cc1ccccc1)NC(=O)[C@H](CO)NC(=O)[C@@H](N)CC(=O)O)C(C)C [H-Asp-Ser-Phe-Val-Gly-Leuψ[CH₂NH]Leu-NH₂] (HELM PEPTIDE1{D.S.F.V.G.[CC(C)C[C@@H](CN[C@@H](CC(C)C)C(N)=O)N[*:1]]}$$$$V2.0) |  |  |  |  | antagonistic effect | did not produce any contraction | significant rightward shift of NKA dose-response curve in competitive manner |
